From patent publication US12583869B2, “Salt form and crystal form of A2A receptor antagonist and preparation method therefor” (CSTONE PHARMACEUTICAL (SUZHOU) CO., LTD., priority 2019, dated 2026)
Read-outs that look alike come from different tables or passages of the source.

What was measured:
[1] = Stability experiments of crystal forms (60°C/75% RH, HPLC related substances); type: physicochemical; conditions: for Stability under high temperature and high humidity conditions (in words): 60°C/75% humidity, 1 week
Experimental: A certain amount (approximately 10 mg) of two parts of the crystal form A of the compound of formula (I), the crystal form B of the compound of formula (II) and the crystal form C of the compound of formula (III) were weighed in parallel, and added to a 40 mL of sample bottle, which were placed in a constant temperature and humidity box at 60° C./75% humidity for 1 week. Another sample (about 10 mg) of the crystal form A of the compound of formula (I), the crystal form B of the compound of formula (II) and the crystal form C of the compound of formula (III) were placed in a refrigerator at −20° C. as control samples. At the time point of investigation, the corresponding test sample was taken out of the stability box, the aluminum foil paper was removed from the sample bottle of 60° C./75% RH, and the sample bottle was covered with a bottle cap. The 0-day samples were taken out of the refrigerator and analyzed after the samples were restored to room temperature.

[2] = In vivo PK experiment, plasma and tumor tissue on day 20 of the efficacy experiment; set-up: species or system BALB/c mice; conditions: BALB/c, mouse, oral; for concentration at 1 h / concentration at 4 h: tumor, read-out: Tumor drug concentration
Experimental: Blood was collected and tissues were collected from each group of the experiment at different time points (0 h, 0.25 h, 0.5 h, 1 h, 2 h, 4 h, 8 h and 24 h) on day 20 of the administration of experimental embodiment 3. The pharmacokinetic parameters of each experimental group were shown in Table 12, and the biological ratios of the tumor tissue drug concentration and the corresponding blood sampling point tumor tissue drug concentration and plasma drug concentration of each experimental group were shown in Table 13.

[3] = Pharmacokinetic experiment in mice, single intravenous and oral administration; type: in vivo; conditions: female, mouse, plasma; Balb/c mice, oral vs intravenous; read-out: Bioavailability F
Experimental: Experimental materials: Balb/c mice (female, 15-30 g, 7-9 weeks old, Shanghai Lingchang) were used.
Experimental method: The rodent pharmacokinetic characteristics of the compound after intravenous injection and oral administration were tested by a standard protocol. In the experiment, the candidate compound was formulated into a clear solution and given to mice by a single intravenous injection and a single oral administration. The solvent for intravenous injection (IV) was a mixed solvent of 5% DMSO/5% polyethylene glycol hydroxystearate/90% water, and the solvent for oral (PO) was a mixed solvents of 1% tween80, 9% PEG400, 90% H2O (pH=3). Whole blood samples within 48 hours were collected, centrifuged at 3000 g for 15 minutes at 4 degrees, separated the supernatant to obtain a plasma sample. Then 20 times the volume of acetonitrile solution containing internal standard was added to precipitate the protein, the mixture was centrifuged to take the supernatant, equal volume of water was added and centrifuge to take the supernatant again for injection. The blood drug concentration was quantitatively analyzed by LC-MS/MS analysis method, and the pharmacokinetic parameters were calculated, such as peak concentration, peak time, clearance rate, half-life, area under the drug-time curve, bioavailability, etc.

[4] = test system: mouse colon cancer CT26 cells; experiment: In vivo drug efficacy experiment, subcutaneous CT26 allograft tumor; set-up: species or system BALB/c mice; conditions: CS1003 1 mg/kg intraperitoneal, day 20
Experimental: Experimental materials: BALB/c mice (female); mouse colon cancer CT26 cells (cell bank of the Type Culture Collection Committee of the Chinese Academy of Sciences), were cultured in a monolayer in vitro, and the culture condition was RPMI-1640 medium containing 10% fetal bovine serum, and cultured in 5% CO2 incubator at 37° C. Trypsin-EDTA was used for conventional digestion and passage. When the cells were in the exponential growth phase and the saturation was 80%-90%, the cells were collected and counted.
Compound preparation: The compound of formula (II-1) was weighed and added to a solvent (10% PEG400+90% (10% Cremophor aqueous solution)) to prepare samples of 2.5 mg/mL, 5 mg/mL, and 10 mg/mL, respectively. […]
Experimental operation: The cells in Dulbecco's phosphate buffer were resuspended at a density of 3×10^6 cells/mL. […] During the entire experiment, the animals were weighed and monitored daily. […] The tumor diameter was measured with vernier calipers twice a week. […]
The anti-tumor efficacy of the compound was evaluated by GI (%) or relative tumor proliferation rate T/C (%). […]
The statistical analysis was based on the relative tumor volume and tumor weight at the end of the experiment using SPSS software. The comparison between the two groups was analyzed by t-test, and the comparison between three or more groups was analyzed by one-way ANOVA. […]

Molecule	Impurity at relative retention time 0.36 ([1]; 0 day (control sample, -20°C))	Impurity at relative retention time 0.45 ([1]; 0 day (control sample, -20°C))	Impurity at relative retention time 0.49 ([1]; 0 day (control sample, -20°C))	Impurity at relative retention time 0.67 ([1]; 0 day (control sample, -20°C))	Impurity at relative retention time 0.70 ([1]; 0 day (control sample, -20°C))	Impurity at relative retention time 1.18 ([1]; 0 day (control sample, -20°C))	Total impurities % ([1]; 0 day (control sample, -20°C)) [%]	Impurity at relative retention time 0.36 ([1]; 60 C./75% RH, one week)	Impurity at relative retention time 0.45 ([1]; 60 C./75% RH, one week)	Impurity at relative retention time 0.49 ([1]; 60 C./75% RH, one week)	Impurity at relative retention time 0.67 ([1]; 60 C./75% RH, one week)	Impurity at relative retention time 0.70 ([1]; 60 C./75% RH, one week)	Impurity at relative retention time 1.18 ([1]; 60 C./75% RH, one week)	Total impurities % ([1]; 60 C./75% RH, one week) [%]	Stability under high temperature and high humidity conditions (in words) [1]	further results
Nc1nc(-c2ccc(F)cc2)c(-c2ccc3ncnn3c2)c2nccnc12.O=C(O)/C=C\C(=O)O	0.06	0.09	0.09	0.05	0.11	0.29	0.69	0.05	0.09	0.09	0.05	0.12	0.29	0.69	good stability	–
Nc1nc(-c2ccc(F)cc2)c(-c2ccc3ncnn3c2)c2nccnc12 [Crystal form B of the compound of formula (II)]	0.09	0.10	0.09	0.05	0.15	0.40	0.87	0.09	0.10	0.09	0.05	0.15	0.40	0.87	good stability	–
Nc1nc(-c2ccc(F)cc2)c(-c2ccc3ncnn3c2)c2nccnc12 [Compound of formula (II-1)]	–	–	–	–	–	–	–	–	–	–	–	–	–	–	–	concentration at 1 h ([2]; 25 mpk, Group 4, 25 mpk + CS1003, time point 1 h): 3.48 µM; concentration at 4 h ([2]; 25 mpk, Group 4, 25 mpk + CS1003, time point 4 h): 0.925 µM; concentration at 1 h ([2]; 50 mpk, Group 5, 50 mpk once a day + CS1003, time point 1 h): 9.96 µM; concentration at 4 h ([2]; 50 mpk, Group 5, 50 mpk once a day + CS1003, time point 4 h): 1.66 µM; concentration at 4 h ([2]; 50 mpk, Group 8, 50 mpk twice a day + CS1003, time point 4 h): 3.02 µM; concentration at 1 h ([2]; 100 mpk, Group 6, 100 mpk + CS1003, time point 1 h): 18.7 µM; concentration at 4 h ([2]; 100 mpk, Group 6, 100 mpk + CS1003, time point 4 h): 3.03 µM; Kp at 1 h ([2]; tumor/plasma, Group 4, 25 mpk + CS1003, time point 1 h, read-out: T/P Ratio (compound exposure in tumor tissue and plasma)): 0.7; bioavailability [3]: 30.4%
Nc1nc(-c2ccc(F)cc2)c(-c2ccc3ncnn3c2)c2nccnc12 [Crystal form C of the compound of formula (III)]	0.05	0.09	0.08	0.04	0.09	0.50	0.96	0.05	0.09	0.08	0.04	0.09	0.52	1.16	good stability	–
CS1003: full-length, fully humanized immunoglobulin G4 (IgG4) monoclonal antibody against PD-1 (antibody, chains of the INN, looked up, V domains shown) VH: QVQLVQSGAEVKKPGSSVKVSCKASGFTFTTYYISWVRQAPGQGLEYLGYINMGSGGTNYNEKFKGRVTITADKSTSTAYMELSSLRSEDTAVYYCAIIGYFDYWGQGTMVTVSS VL: DVVMTQSPLSLPVTLGQPASISCRSSQSLLDSDGGTYLYWFQQRPGQSPRRLIYLVSTLGSGVPDRFSGSGSGTDFTLKISRVEAEDVGVYYCMQLTHWPYTFGQGTKLEIK	–	–	–	–	–	–	–	–	–	–	–	–	–	–	–	Tumor volume [4]: 487.34±109.07 mm^3; Tumor inhibition rate GI ([4]; no significant difference with solvent control): 42.47%
